Experiments:
Assay type in all cases: cell-based, human
Conditions in all cases: for β-Gal: liposome-DNA complex, with serum
HeLa cells = test: pCMV-β-Gal plasmid DNA transfection mediated by ST1223 cationic liposomes, β-galactosidase by ELISA, HeLa cells
Procedure: (§1) Liposomes were prepared starting with 200 mg of ST1223, synthesised according to the procedure described in EXAMPLE 1 and solubilised in 50 mL of chloroform (solubilisation phase). The solvent was then eliminated under vacuum for one night (t 30-40° C.; 400-700 mm Hg). The sample was hydrated with deionised water to a final concentration of 5 mM (hydration phase). The liposomes were then subjected to sonication for 1 h at 10-second intervals using a sonication bath. The liposomes thus prepared produced unilaminar vesicles.
(§2) The liposome-DNA complex was prepared by mixing the two solutions A and B described here below:
(§3) Solution A: 2.5 μg of plasmid DNA (pCMV/β- Gal, 7200 base pairs, used for the expression of the enzyme β-galactosidase) were diluted sterilely in 50 μl of HBS (HEPES 20 mM; NaCl 150 mM, pH 7.4)
(§4) Solution B: the liposome, prepared according to EXAMPLE 7, was diluted in distilled H2O to a concentration of 1.29 mM and 15 μL of this solution were diluted in 50 µL of distilled H2O).
(§5) The two solutions were mixed by stirring gently and incubated for 10-30 min at room temperature.
(§6) pCMV-β-Gal DNA transfection mediated by cationic liposomes in the various cell lines HeLa, MCF-7, Caco2, and T98-G was performed at different cell densities: 100,000 cells/dish 200.000 cells/dish and 300.000 cells/dish.
(§7) HeLa, MCF-7, Caco2 and T98-G cells were grown for 48 h (37° C., 5% CO2) in the following growth media:
HeLa cells RPMI-1640 (HyQ catalogue), 10% fetal calf serum, 1% L-glutamine, 1% streptomycin, 1% penicillin
(§8) Cells were plated at different densities (100.000 cells/dish, 200.000 cells/dish, 300.000 cells/dish) in Petri dishes (Corning or Falcon) measuring approximately 3 cm in diameter and incubated in 2 mL of medium for 18 h before being treated.
(§9) After replacing the medium with 2 mL of fresh medium, […] of the liposome-DNA complex, prepared as described in EXAMPLE 8, were added to each dish; after gentle stirring, the dishes were placed in a thermostat for 5 h (37° C., 5% CO2). Later, the cells were washed three times with 5 mL PBS buffer (Gibco catalogue) per dish and incubated for 16 h (37° C., 5% CO2).
(§10) After washing the cells three times with 5 mL PBS buffer (Gibco catalogue) per dish, total proteins were extracted and 50 μg of these were loaded per well in order to determine β-galactosidase production by immunoassay (β-Gal ELISA Kit, Boehringer).

MCF-7 cells = test: pCMV-β-Gal plasmid DNA transfection mediated by ST1223 cationic liposomes, β-galactosidase by ELISA, MCF-7 cells
Procedure: as §1, §2, §3, §4, §5, §6, §7
MCF-7 cells DMEM (Dulbecco Modified Eagle Medium, SIGMA catalogue), 10% fetal calf serum, 1% L-glutamine, 1% streptomycin, 1% penicillin
as §8, §9, §10

T98-G cells = test: pCMV-β-Gal plasmid DNA transfection mediated by ST1223 cationic liposomes, β-galactosidase by ELISA, T98-G cells
Procedure: as §1, §2, §3, §4, §5, §6, §7
T98-G cells EMEM (Essential Minimum Eagle Medium, SIGMA catalogue), 10% fetal calf serum, 1% L-glutamine, 1% streptomycin, 1% penicillin.
as §8, §9, §10

Caco2 cells = test: pCMV-β-Gal plasmid DNA transfection mediated by ST1223 cationic liposomes, β-galactosidase by ELISA, Caco2 cells
Procedure: as §1, §2, §3, §4, §5, §6, §7
Caco2 cells EMEM (Essential Minimum Eagle Medium, SIGMA catalogue), 15% fetal calf serum, 1% L-glutamine, 1% streptomycin, 1%, penicillin
as §8, §9, §10

SMILES: CCCCCCCCCCC(=O)O[C@H](CC(=O)OCCC(F)(F)C(F)(F)C(F)(F)C(F)(F)C(F)(F)C(F)(F)C(F)(F)C(F)(F)F)C[N+](C)(C)C.[Cl-] [ST1223, undecanoyl-L-carnitine chloride 1,1H-2,2H-hepatdecafluorodecyl ester]
- cell density of greatest transfection efficiency (HeLa cells): 200.000 cells/dish
- β-Gal (HeLa cells; density 100.000 cells/dish): 87 pg/dish
- β-Gal (HeLa cells; density 200.000 cells/dish): 303 pg/dish
- β-Gal (HeLa cells; density 300.000 cells/dish): 83 pg/dish
- cell density of greatest transfection efficiency (MCF-7 cells): 200.000 cells/dish
- β-Gal (MCF-7 cells; density 100.000 cells/dish): 234 pg/dish
- β-Gal (MCF-7 cells; density 200.000 cells/dish): 422 pg/dish
- β-Gal (MCF-7 cells; density 300.000 cells/dish): 409 pg/dish
- cell density of greatest transfection efficiency (T98-G cells): 300.000 cells/dish
- β-Gal (T98-G cells; density 100.000 cells/dish): 126 pg/dish
- β-Gal (T98-G cells; density 200.000 cells/dish): 330 pg/dish
- β-Gal (T98-G cells; density 300.000 cells/dish): 491 pg/dish
- cell density of greatest transfection efficiency (Caco2 cells): 100.000 cells/dish
- β-Gal (Caco2 cells; density 100.000 cells/dish): 422 pg/dish
- β-Gal (Caco2 cells; density 200.000 cells/dish): 395 pg/dish
- β-Gal (Caco2 cells; density 300.000 cells/dish): 385 pg/dish
